Reference: ChEMBL document CHEMBL1201862, “PubChem BioAssay data set” (2004)
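Protocol summary: plate cells (96-well), add compound at 5 concentrations, incubate 48 h, interpolate endpoints linearly. At the GI50, growth is halved.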 Active and inactive are the calls of the source. No stated cut-off is given here; in the data, active = GI50 up to about 1.1 µM and inactive = higher.

Tests used:
Test in all cases: NCI-60 cell line screen, 48 h
KM12 = tested on: KM12
UACC-62 = tested on: UACC-62
RPMI-8226 = tested on: RPMI-8226
HCT-116 = tested on: HCT-116
SF-539 = tested on: SF-539
HCT-15 = tested on: HCT-15
Malme-3M = tested on: Malme-3M
LOX IMVI = tested on: LOX IMVI
HCC 2998 = tested on: HCC 2998
ACHN = tested on: ACHN
LXFL 529 = tested on: LXFL 529
HOP-18 = tested on: HOP-18
HOP-92 = tested on: HOP-92
HOP-62 = tested on: HOP-62
DLD-1 = tested on: DLD-1
SNB-75 = tested on: SNB-75
SNB-19 = tested on: SNB-19
OVCAR-3 = tested on: OVCAR-3
CCRF-CEM = tested on: CCRF-CEM
COLO 205 = tested on: COLO 205
NCI-H460 = tested on: NCI-H460
OVCAR-8 = tested on: OVCAR-8
HL-60 = tested on: HL-60
UO-31 = tested on: UO-31
A498 = tested on: A498
SK-MEL-28 = tested on: SK-MEL-28
SF-295 = tested on: SF-295
HT-29 = tested on: HT-29
RXF 393 = tested on: RXF 393
K562 = tested on: K562
MOLT-4 = tested on: MOLT-4
SN12C = tested on: SN12C
NCI-H522 = tested on: NCI-H522
M14 = tested on: M14
SW-620 = tested on: SW-620
SK-MEL-2 = tested on: SK-MEL-2
SK-OV-3 = tested on: SK-OV-3
DMS-273 = tested on: DMS-273
DMS-114 = tested on: DMS-114
NCI-H23 = tested on: NCI-H23
A549 = tested on: A549
SF-268 = tested on: SF-268
TK-10 = tested on: TK-10
U-251 = tested on: U-251
M19-MEL = tested on: M19-MEL
IGROV-1 = tested on: IGROV-1
SK-MEL-5 = tested on: SK-MEL-5
OVCAR-4 = tested on: OVCAR-4
OVCAR-5 = tested on: OVCAR-5
786-0 = tested on: 786-0
CAKI-1 = tested on: CAKI-1

Measured: GI50

CC(C1=CC=C2[C@@H]3CCC4CC(N(C)C)CC[C@]4(C)C3CC[C@]12C)N(C)C=O (stereo partly specified)
> 100 µM: HCT-15
inactive: KM12 > 100 µM | UACC-62 > 100 µM | RPMI-8226 78.3 µM | HCT-116 > 100 µM | SF-539 > 100 µM | Malme-3M > 100 µM | LOX IMVI 25.7 µM | HCC 2998 > 100 µM | ACHN > 100 µM | LXFL 529 > 100 µM | HOP-18 > 100 µM | HOP-92 > 100 µM | HOP-62 > 100 µM | DLD-1 > 100 µM | SNB-75 52.8 µM | SNB-19 > 100 µM | OVCAR-3 > 100 µM | CCRF-CEM > 100 µM | COLO 205 > 100 µM | NCI-H460 > 10 µM | OVCAR-8 > 100 µM | HL-60 > 100 µM | UO-31 > 100 µM | A498 6.49 µM | SK-MEL-28 > 100 µM | SF-295 > 100 µM | HT-29 25.3 µM | RXF 393 > 100 µM | K562 36.1 µM | MOLT-4 > 100 µM | SN12C > 100 µM | NCI-H522 > 100 µM | M14 > 100 µM | SW-620 > 100 µM | SK-MEL-2 > 100 µM | SK-OV-3 > 100 µM | DMS-273 > 100 µM | DMS-114 91.6 µM | NCI-H23 > 100 µM | A549 > 100 µM | SF-268 > 100 µM | TK-10 > 100 µM | U-251 > 100 µM | M19-MEL > 100 µM | IGROV-1 > 100 µM | SK-MEL-5 > 100 µM | OVCAR-4 > 100 µM | OVCAR-5 > 100 µM | 786-0 > 100 µM | CAKI-1 > 100 µM
